How the values were obtained:
human CAIX = human CAIX (Homo sapiens, UniProt Q16790); test: In vitro SPR binding assay of DPI-4452, natLu-DPI-4452 and natGa-DPI-4452 to CAIX (anti-human Fc capture); set-up: purchased SinoBliological (Sino Biological) 10107-H02H
Experimental: Surface Plasmon Resonance (SPR) studies were performed on a Biacore™ T200 using a ligand capture approach. Basically, anti-human Fc antibodies were immobilized on the surface of a sensor chip and CAIX was captured on the functionalized surface via its Fc Tag.
Then, each compound was injected at increasing concentrations on the captured CAIX in order to measure the in real-time interaction of the compound to its target (i.e. the captured CAIX). The in real-time monitoring of the association and dissociation of the interaction gives access to the interaction kinetics parameters (i.e. the association and dissociation rate constants and the resulting affinity constants).
• A series S CM5 sensor chip was used (Cytiva). • All reagents used for the immobilization procedure were part of the Amine Coupling Kit, type 2 and/or the Human Antibody Capture Kit (Cytiva). The running buffer (HBS-EP+) was prepared by 10-fold dilution of the stock HBS-EP+ 10× solution (Cytiva). • Anti-human Fc antibodies stock solution (0.5 mg/mL in 0.15 M NaCl) was diluted in 10 mM sodium acetate pH 5.0 to a final concentration of 25 μg/mL directly into a plastic vial 7 mm. • Amine coupling reagents were transferred into plastic vials 7 mm as follow: • 95 μL of 0.4 M 1-ethyl-3-(3-dimethylaminopropyl)carbodiimide (EDC). • 95 μL of 0.1 M N-hydroxysuccinimide (NHS). • An empty plastic vial 7 mm was added in the Biacore™ sample rack for mixing. • 150 μL of 1 M ethamolamine-HCl, pH 8.5. • Plastic vials were closed with rubber caps and the sample rack was inserted into the Biacore™ T200 sample compartment. • The Biacore™ T200 Amine Wizard was used to immobilize the anti-Human Fc antibodies on the four flow-cells of a series S CM5 sensor chip simultaneously with defined contact time of 360 seconds and flow-rate of 5 μL/min. • The immobilization procedure was performed at 25° C., following Cytiva's recommendations, as described in Table 23.
This procedure allowed to reach immobilization levels between 6000 and 9000 RU of anti-human Fc antibodies on the sensor chip surface.
• CAIX (Sino Biological, 10107-H02H) stock solution was prepared from lyophilized material reconstituted with deionized water to a concentration of 0.25 μg/mL (3.69 μM), following the supplier recommendations. • CAIX working solution was obtained after dilution of CAIX stock solution with PBS-P+1×, 0.1% DMSO to a final concentration of 200 nM directly in a Biacore™ plastic vial.
• For each measurement, the raw surface plasmon resonance response (RU) was plotted against time (s) as a sensorgram using the Biacore™ T200 Control Software. • Raw data were corrected by double referencing with subtraction of the signal of both the reference flow-cell and the blank cycle. • The association and dissociation rate constants (ka and kd, respectively), as well as the dissociation constant KD and dissociation half-life t1/2 were determined from the corrected sensorgrams by fitting the data to a 1:1 Langmuir binding model with the Biacore™ T200 evaluation software.

[1] = Biodistribution study in healthy dog (SPECT/CT, blood pharmacokinetics, urine excretion); details: in vivo

CC(C)C[C@@H]1NC(=O)[C@H](Cc2cccc(NC(=O)CCCS(N)(=O)=O)c2)NC(=O)[C@H](CC(=O)O)NC(=O)[C@H]2CCCN2C(=O)[C@H](CCC(=O)O)NC(=O)[C@@H](NC(=O)[C@H](CCC(N)=O)NC(=O)CN2CCN(C(=O)CN3CCN(CC(=O)O)CCN(CC(=O)O)CCN(CC(=O)O)CC3)CC2)CSCc2cccc(c2)CSC[C@@H](C(N)=O)NC(=O)[C@H](CO)NC(=O)[C@H](Cc2c[nH]c3ccccc23)NC(=O)[C@H]([C@@H](C)O)NC1=O [DPI-4452, DOTA-PPAc-Gln-[Cys(3MeBn)-Glu-pro-Asp-Af3(Cpsu)-Leu-Thr-Trp-Ser-Cys]-NH2]
affinity of binding to CAIX (human CAIX; SPR): subnanomolar affinity
t1/2 (human CAIX; SPR dissociation half-life): 99 min
mean dissociation half-life (human CAIX; SPR, 25°C): 99 min

CC(C)C[C@@H]1NC(=O)[C@H](Cc2cccc(NC(=O)CCCS(N)(=O)=O)c2)NC(=O)[C@H](CC(=O)O)NC(=O)[C@H]2CCCN2C(=O)[C@H](CCC(=O)O)NC(=O)[C@@H](NC(=O)[C@H](CCC(N)=O)NC(=O)CN2CCN(C(=O)CN3CCN(CC(=O)O)CCN(CC(=O)O)CCN(CC(=O)O)CC3)CC2)CSCc2cccc(c2)CSC[C@@H](C(N)=O)NC(=O)[C@H](CO)NC(=O)[C@H](Cc2c[nH]c3ccccc23)NC(=O)[C@H]([C@@H](C)O)NC1=O [[^111In]In-DPI-4452, metal not drawn]
half-life [1]: 55.6 min
half-life ([1]; iv): 5.43 min

Reference: patent publication US20250339569A1, “CARBONIC ANHYDRASE IX LIGANDS” (priority 2021, published 2025)
